Results on 1 compound are retold here after patent US20120213826A1, “Use of Pro-Inflammatory Compounds for Promoting Bone Formation” (Imperial Innovations Limited, priority 2009, published 2012).

Where two headings read alike, the source gives them in different places. Where only a bound is given, the exact number is not on record here.

One data set in a line: Aqueous solubility. It counts as physicochemical.
Data set [1] concerns murine open tibial fracture. Description: Murine open tibial fracture model, periosteally stripped (histology, CT scans). Format: in vivo, C57BI/6 mice. As to conditions: for fracture healing: 1-MT, 20 μl in PBS at fracture site.

With `Cn1cc(C[C@H](N)C(=O)O)c2ccccc21` [1-MT, 1-methyl tryptophan, reference compound], the aqueous solubility entry in “Aqueous solubility” is reported as “poorly soluBIe in aqueous solutions”; in the data set “Aqueous solubility” (listed as 1MT), “poor aqueous solubility”. Further, the fracture healing result in data set [1] (histology day 14 (FIG. 21)) was “accelerated fracture healing”; in data set [1] (histology day 14 (FIG. 21), listed as 1-methyl tryptophan), “dose dependent acceleration of fracture healing”. Also, the “healing of tibial fractures by CT scans” value in data set [1] (28 days post injury, local administration at fracture site (TNFα 50 ng/kg and HMGB1 at time of fracture and 24 hr later) (FIG. 19, 30)) was “trend to improved healing but did not reach statistical significance”. The “dose of greatest response (maximal dose tested)” value in data set [1] (FIG. 21) came to 500 µg/mL. Moreover, the “concentrations giving accelerated fracture healing” value in data set [1] (within the range tested (0.5-5 mg/kg), histology day 14 (FIG. 21)) is at least 500 µg/mL.
